pIC50: −log10 of the molar value.
Assays:
PIK3CA (human) = PIK3CA (human) (UniProt P42336); assay: Assessment of PIK3CA Kinase Activity
PIK3CB (Human) = PIK3CB (Human) (UniProt P42338); assay: Assessment of PIK3CB Kinase Activity
PIK3CD (Human) = PIK3CD (Human) (UniProt O00329); assay: Assessment of PIK3CD Kinase Activity
PIK3CG (human) = PIK3CG (human) (UniProt P48736); assay: Assessment of PIK3CG Kinase Activity
Chain of PIK3CG (human) (P48736 whole entry, looked up): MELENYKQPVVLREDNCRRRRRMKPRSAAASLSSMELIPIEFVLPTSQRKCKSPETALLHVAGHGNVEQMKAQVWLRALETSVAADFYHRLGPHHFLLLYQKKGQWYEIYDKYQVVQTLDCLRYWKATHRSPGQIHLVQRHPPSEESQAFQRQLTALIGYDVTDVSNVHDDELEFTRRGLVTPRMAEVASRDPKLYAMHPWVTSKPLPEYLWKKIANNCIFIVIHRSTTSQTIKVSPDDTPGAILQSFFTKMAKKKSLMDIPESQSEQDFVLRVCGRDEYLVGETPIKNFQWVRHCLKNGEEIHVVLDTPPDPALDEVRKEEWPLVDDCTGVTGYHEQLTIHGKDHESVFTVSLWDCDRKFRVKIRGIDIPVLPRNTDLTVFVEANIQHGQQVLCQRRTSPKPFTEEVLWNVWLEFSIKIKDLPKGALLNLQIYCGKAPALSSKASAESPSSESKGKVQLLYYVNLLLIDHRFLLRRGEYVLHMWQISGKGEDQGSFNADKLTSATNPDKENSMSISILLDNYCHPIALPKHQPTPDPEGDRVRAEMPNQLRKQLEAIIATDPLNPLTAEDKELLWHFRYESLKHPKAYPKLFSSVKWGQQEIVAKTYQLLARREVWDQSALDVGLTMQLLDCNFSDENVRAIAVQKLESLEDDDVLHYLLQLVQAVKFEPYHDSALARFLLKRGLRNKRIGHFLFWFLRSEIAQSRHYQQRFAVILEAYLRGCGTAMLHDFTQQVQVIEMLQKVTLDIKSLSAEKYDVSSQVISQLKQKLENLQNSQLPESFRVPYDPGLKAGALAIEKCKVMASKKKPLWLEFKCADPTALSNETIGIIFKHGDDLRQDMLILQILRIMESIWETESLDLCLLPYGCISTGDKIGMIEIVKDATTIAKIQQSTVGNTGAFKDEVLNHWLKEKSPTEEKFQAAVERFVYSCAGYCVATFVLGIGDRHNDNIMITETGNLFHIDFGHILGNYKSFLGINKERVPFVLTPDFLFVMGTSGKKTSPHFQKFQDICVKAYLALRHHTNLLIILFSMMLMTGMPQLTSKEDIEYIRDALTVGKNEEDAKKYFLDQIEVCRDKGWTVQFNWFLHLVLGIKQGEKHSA

Chain of PIK3CA (human) (P42336 whole entry, looked up): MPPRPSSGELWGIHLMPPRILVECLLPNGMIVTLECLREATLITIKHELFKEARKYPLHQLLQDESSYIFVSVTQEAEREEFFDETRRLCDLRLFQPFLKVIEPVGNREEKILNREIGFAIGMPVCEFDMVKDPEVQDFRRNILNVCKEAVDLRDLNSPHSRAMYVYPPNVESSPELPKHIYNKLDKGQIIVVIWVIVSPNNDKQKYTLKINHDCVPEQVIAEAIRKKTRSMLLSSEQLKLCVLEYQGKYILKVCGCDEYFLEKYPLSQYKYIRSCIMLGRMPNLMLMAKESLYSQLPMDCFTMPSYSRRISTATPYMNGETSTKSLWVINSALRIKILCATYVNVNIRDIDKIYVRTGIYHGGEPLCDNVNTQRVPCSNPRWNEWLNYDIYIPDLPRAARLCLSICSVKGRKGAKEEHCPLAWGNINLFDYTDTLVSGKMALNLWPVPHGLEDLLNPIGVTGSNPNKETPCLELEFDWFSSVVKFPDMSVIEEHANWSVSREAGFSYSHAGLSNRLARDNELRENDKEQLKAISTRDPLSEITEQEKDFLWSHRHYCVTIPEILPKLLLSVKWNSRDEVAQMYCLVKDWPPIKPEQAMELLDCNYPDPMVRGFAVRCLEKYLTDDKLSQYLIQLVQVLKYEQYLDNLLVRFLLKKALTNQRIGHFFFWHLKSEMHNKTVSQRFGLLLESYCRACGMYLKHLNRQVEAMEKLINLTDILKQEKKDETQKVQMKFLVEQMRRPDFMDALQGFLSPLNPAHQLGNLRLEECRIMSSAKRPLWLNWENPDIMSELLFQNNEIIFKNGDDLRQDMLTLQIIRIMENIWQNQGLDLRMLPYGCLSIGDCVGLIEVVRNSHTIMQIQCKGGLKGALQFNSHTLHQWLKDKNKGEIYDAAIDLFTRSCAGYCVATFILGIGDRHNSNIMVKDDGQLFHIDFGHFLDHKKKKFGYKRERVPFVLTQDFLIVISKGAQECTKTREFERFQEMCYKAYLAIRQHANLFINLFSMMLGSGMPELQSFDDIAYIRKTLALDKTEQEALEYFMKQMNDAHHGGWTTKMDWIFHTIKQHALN
Chain of PIK3CD (Human) (O00329 whole entry, looked up): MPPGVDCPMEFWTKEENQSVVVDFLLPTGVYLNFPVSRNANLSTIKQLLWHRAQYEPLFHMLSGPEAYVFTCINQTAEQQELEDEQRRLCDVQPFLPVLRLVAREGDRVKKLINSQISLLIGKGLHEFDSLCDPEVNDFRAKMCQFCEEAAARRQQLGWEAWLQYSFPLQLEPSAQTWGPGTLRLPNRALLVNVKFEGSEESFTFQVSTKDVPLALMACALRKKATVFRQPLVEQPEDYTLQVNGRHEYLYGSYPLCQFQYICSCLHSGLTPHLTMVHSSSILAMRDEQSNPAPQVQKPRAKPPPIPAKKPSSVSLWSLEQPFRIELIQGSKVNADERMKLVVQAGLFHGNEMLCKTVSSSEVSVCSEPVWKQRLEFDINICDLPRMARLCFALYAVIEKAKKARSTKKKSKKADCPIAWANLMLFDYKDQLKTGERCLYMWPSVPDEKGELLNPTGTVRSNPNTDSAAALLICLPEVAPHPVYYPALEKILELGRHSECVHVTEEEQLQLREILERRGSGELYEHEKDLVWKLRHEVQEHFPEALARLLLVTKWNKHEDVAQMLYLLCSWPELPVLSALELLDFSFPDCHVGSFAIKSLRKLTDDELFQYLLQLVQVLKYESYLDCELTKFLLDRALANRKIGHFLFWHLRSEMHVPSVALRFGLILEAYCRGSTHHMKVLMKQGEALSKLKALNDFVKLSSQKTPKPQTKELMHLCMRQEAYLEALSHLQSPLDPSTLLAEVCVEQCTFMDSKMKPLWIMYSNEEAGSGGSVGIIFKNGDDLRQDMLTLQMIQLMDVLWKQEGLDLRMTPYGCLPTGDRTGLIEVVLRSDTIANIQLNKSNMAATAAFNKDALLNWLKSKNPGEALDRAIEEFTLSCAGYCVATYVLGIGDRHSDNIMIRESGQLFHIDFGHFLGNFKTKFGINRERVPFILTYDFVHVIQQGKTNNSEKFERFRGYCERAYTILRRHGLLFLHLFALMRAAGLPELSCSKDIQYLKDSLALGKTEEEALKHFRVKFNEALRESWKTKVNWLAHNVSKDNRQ
Chain of PIK3CB (Human) (P42338 whole entry, looked up): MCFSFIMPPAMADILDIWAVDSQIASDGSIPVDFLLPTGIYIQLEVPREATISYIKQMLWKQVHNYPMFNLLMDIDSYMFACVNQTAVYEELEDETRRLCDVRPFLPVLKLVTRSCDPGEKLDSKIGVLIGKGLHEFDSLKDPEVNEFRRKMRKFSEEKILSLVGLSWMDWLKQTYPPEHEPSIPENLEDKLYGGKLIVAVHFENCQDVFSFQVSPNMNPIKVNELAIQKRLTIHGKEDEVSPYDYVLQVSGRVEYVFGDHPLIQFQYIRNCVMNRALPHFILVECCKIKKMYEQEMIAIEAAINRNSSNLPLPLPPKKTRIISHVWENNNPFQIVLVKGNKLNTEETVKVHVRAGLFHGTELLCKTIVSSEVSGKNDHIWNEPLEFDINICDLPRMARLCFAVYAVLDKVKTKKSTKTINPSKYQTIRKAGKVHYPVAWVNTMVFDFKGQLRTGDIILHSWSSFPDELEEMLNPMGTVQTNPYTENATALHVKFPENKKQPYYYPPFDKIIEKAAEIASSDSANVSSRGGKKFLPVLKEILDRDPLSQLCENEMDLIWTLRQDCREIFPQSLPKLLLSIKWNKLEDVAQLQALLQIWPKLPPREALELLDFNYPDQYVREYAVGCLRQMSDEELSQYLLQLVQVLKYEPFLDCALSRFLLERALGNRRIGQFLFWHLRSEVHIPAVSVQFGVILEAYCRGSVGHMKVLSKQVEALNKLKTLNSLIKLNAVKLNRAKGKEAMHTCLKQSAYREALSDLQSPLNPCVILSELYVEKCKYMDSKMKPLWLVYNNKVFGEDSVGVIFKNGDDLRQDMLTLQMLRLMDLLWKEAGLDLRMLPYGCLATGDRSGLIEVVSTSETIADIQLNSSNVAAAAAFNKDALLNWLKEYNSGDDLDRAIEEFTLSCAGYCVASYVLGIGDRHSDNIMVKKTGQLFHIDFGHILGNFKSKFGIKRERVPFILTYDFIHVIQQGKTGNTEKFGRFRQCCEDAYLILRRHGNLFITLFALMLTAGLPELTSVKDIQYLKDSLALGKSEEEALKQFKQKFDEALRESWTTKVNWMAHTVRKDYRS

Row | Structure (SMILES) | pIC50 (PIK3CA (human)) | pIC50 (PIK3CB (Human)) | pIC50 (PIK3CD (Human)) | pIC50 (PIK3CG (human))
1 | C[C@H](Nc1nc(Cl)nc2nccnc12)c1cc2cccc(Cl)c2c(=O)n1-c1ccccc1 | < 5.00 | < 5.00 | – | –
2 | Cc1cn2nccc(N[C@@H](C)c3cc4cccc(Cl)c4c(=O)n3-c3ccccc3)c2n1 | < 5.00 | < 5.00 | – | –
3 | Cc1cn2nccc(N[C@@H](C)c3cc4cccc(Cl)c4c(=O)n3-c3cccc(F)c3)c2n1 | < 5.00 | < 5.00 | – | –
4 | C[C@H](Nc1ncnc2[nH]cnc12)c1cc2scc(C(F)(F)F)c2c(=O)n1-c1ccccc1 | 6.00 to 7.00 | 6.00 to 7.00 | 6.00 to 7.00 | –
5 | COc1cncc(-c2cccc3cc([C@H](C)Nc4nc(N)nc5cccnc45)n(-c4ccccc4)c(=O)c23)c1 | 6.00 to 7.00 | – | > 7.00 | > 7.00
6 | C[C@H](Nc1ncnc(N)n1)c1cc2cccc(Cl)c2c(=O)n1-c1cccc(F)c1 | < 5.00 | < 5.00 | 6.00 to 7.00 | –
7 | C[C@H](Nc1nc(Cl)nc2cccnc12)c1cc2cccc(C(F)(F)F)c2c(=O)n1-c1ccccc1 | < 5.00 | < 5.00 | – | 6.00 to 7.00
8 | C[C@H](Nc1ncnc2cccnc12)c1cc2scc(C(F)(F)F)c2c(=O)n1-c1ccccc1 | < 5.00 | < 5.00 | > 7.00 | –
9 | C[C@H](Nc1nc(N)nc2cccnc12)c1cc2cccc(-c3cnc4ccccc4c3)c2c(=O)n1-c1ccccc1 | 6.00 to 7.00 | – | > 7.00 | > 7.00
10 | C[C@H](Nc1nc(Cl)nc2scnc12)c1cc2cccc(C(F)(F)F)c2c(=O)n1-c1ccccc1 | < 5.00 | – | > 7.00 | > 7.00
11 | C[C@H](Nc1ncnc2cccnc12)c1cc2cccc(-c3cnn(C)c3)c2c(=O)n1C | < 5.00 | < 5.00 | – | –
12 | C[C@H](Nc1ncnc2cccnc12)c1cc2scc(-c3cnn(C)c3)c2c(=O)n1-c1ccccc1 | < 5.00 | < 5.00 | – | > 7.00
13 | C[C@H](Nc1cc(N)nc2ccnn12)c1cc2cccc(Cl)c2c(=O)n1-c1ccccc1 | < 5.00 | – | > 7.00 | > 7.00
14 | Cc1nsc2cc(C(C)Nc3ncnc4cccnc34)n(-c3ccccc3)c(=O)c12 (stereo not drawn) | < 5.00 | < 5.00 | 6.00 to 7.00 | –
15 | Cc1cncc(-c2cccc3cc([C@H](C)Nc4nc(N)nc5cccnc45)n(-c4ccccc4)c(=O)c23)c1 | 6.00 to 7.00 | – | > 7.00 | > 7.00
16 | Cc1ncc(-c2cccc3cc([C@H](C)Nc4nc(N)nc5cccnc45)n(-c4ccccc4)c(=O)c23)s1 | 6.00 to 7.00 | – | > 7.00 | > 7.00
17 | COc1nc(N[C@@H](C)c2cc3cccc(C(F)(F)F)c3c(=O)n2-c2cccc(F)c2)c2ncccc2n1 | < 5.00 | < 5.00 | < 5.00 | –
18 | C[C@H](Nc1ccnc2ccnn12)c1cc2cccc(C(F)(F)F)c2c(=O)n1-c1cccc(F)c1 | < 5.00 | – | > 7.00 | > 7.00
19 | C[C@H](Nc1ccnc2cccnc12)c1cc2cccc(C(F)(F)F)c2c(=O)n1-c1ccccc1 | < 5.00 | – | > 7.00 | > 7.00
20 | Cc1ccnc2cc(C(C)Nc3ncnc4cccnc34)[nH]c(=O)c12 (stereo not drawn) | < 5.00 | < 5.00 | – | < 5.00
21 | C[C@H](Nc1nc(N)ncc1C(F)(F)F)c1cc2cccc(C(F)(F)F)c2c(=O)n1-c1cccc(F)c1 | < 5.00 | – | > 7.00 | > 7.00
22 | C[C@H](Nc1c(C#N)cnc2cccnc12)c1cc2cccc(Cl)c2c(=O)n1-c1cccc(F)c1 | < 5.00 | < 5.00 | < 5.00 | –
23 | Cc1cn2nccc(N[C@@H](C)c3cc4cccc(-c5cnn(C)c5)c4c(=O)n3-c3ccccc3)c2n1 | < 5.00 | < 5.00 | – | –

Row | Structure (SMILES) | pIC50 (PIK3CA (human)) | pIC50 (PIK3CB (Human)) | pIC50 (PIK3CD (Human)) | pIC50 (PIK3CG (human))
24 | C[C@H](Nc1cc(Cl)nn2ccnc12)c1cc2cccc(C(F)(F)F)c2c(=O)n1-c1cccc(F)c1 | < 5.00 | < 5.00 | 6.00 to 7.00 | –
25 | Cc1cn2nccc(N[C@@H](C)c3cc4cccc(C(F)(F)F)c4c(=O)n3-c3ccccc3)c2n1 | < 5.00 | < 5.00 | < 5.00 | –
26 | C[C@H](Nc1ncnc2cccnc12)c1cc2c(F)ccc(Cl)c2c(=O)n1-c1ccccc1 | 6.00 to 7.00 | 6.00 to 7.00 | – | > 7.00
27 | C[C@H](Nc1nc(Cl)nc2cccnc12)c1cc2cccc(Cl)c2c(=O)n1-c1ccccc1 | < 5.00 | < 5.00 | – | > 7.00
28 | C[C@H](Nc1ncnc2ccnn12)c1cc2cccc(Cl)c2c(=O)n1-c1cccc(F)c1 | < 5.00 | – | > 7.00 | 6.00 to 7.00
29 | C[C@H](Nc1c(C#N)cnc2cccnc12)c1cc2cccc(-c3cnn(C)c3)c2c(=O)n1-c1ccccc1 | < 5.00 | < 5.00 | < 5.00 | –
30 | C[C@H](Nc1c(C#N)cnc2cccnc12)c1cc2cccc(C(F)(F)F)c2c(=O)n1-c1ccccc1 | < 5.00 | < 5.00 | < 5.00 | –
31 | C[C@H](Nc1c(C#N)cnc2cccnc12)c1cc2cccc(Cl)c2c(=O)n1-c1ccccc1 | < 5.00 | < 5.00 | < 5.00 | –
32 | Cc1cc(-c2cccc3cc([C@H](C)Nc4ncnc5cccnc45)n(-c4ccccc4)c(=O)c23)ccn1 | 6.00 to 7.00 | – | > 7.00 | > 7.00
33 | Cc1cc(-c2cccc3nc([C@H](C)Nc4nc(N)nc5cccnc45)n(-c4ccccc4)c(=O)c23)ccn1 | 6.00 to 7.00 | – | > 7.00 | > 7.00
34 | C[C@H](Nc1nc(N)nc2nccnc12)c1cc2cccc(Cl)c2c(=O)n1-c1ccccc1 | < 5.00 | – | 6.00 to 7.00 | > 7.00
35 | C[C@H](Nc1nc(Cl)nc2nc(Cl)cnc12)c1cc2cccc(Cl)c2c(=O)n1-c1ccccc1 | < 5.00 | < 5.00 | – | < 5.00
36 | C[C@H](Nc1cc(Cl)ncc1C#N)c1cc2cccc(Cl)c2c(=O)n1-c1ccccc1 | < 5.00 | < 5.00 | – | < 5.00
37 | C[C@H](Nc1cc(Cl)nn2ccnc12)c1cc2cccc(-c3cnn(C)c3)c2c(=O)n1C1CC1 | < 5.00 | < 5.00 | – | –
38 | Cc1nc2c(N[C@@H](C)c3cc4cccc(C(F)(F)F)c4c(=O)n3-c3ccccc3)ncnc2s1 | < 5.00 | < 5.00 | < 5.00 | –
39 | Cc1cc(-c2cccc3cc([C@H](C)Nc4nc(N)nc5cccnc45)n(-c4ccccc4)c(=O)c23)ccn1 | 6.00 to 7.00 | – | > 7.00 | > 7.00
40 | C[C@H](Nc1ncnc2[nH]nc(C#N)c12)c1cc2cccc(Cl)c2c(=O)n1-c1ccccc1 | < 5.00 | – | > 7.00 | > 7.00
41 | Cc1ccnc2cc(C(C)Nc3ncnc4cccnc34)n(-c3ccccc3)c(=O)c12 (stereo not drawn) | < 5.00 | – | > 7.00 | 6.00 to 7.00
42 | C[C@H](Nc1nc(N)nc2cccnc12)c1cc2cccc(-c3cnn(C)c3)c2c(=O)n1C1CC1 | 6.00 to 7.00 | – | > 7.00 | > 7.00
43 | C[C@H](Nc1cc(O)nc2cccnc12)c1cc2cccc(Cl)c2c(=O)n1-c1ccccc1 | < 5.00 | < 5.00 | – | –
44 | COc1ccc(CNc2nc(N[C@@H](C)c3cc4cccc(-c5cnc(OC)nc5)c4c(=O)n3-c3ccccc3)c3ncccc3n2)cc1 | < 5.00 | – | 6.00 to 7.00 | 6.00 to 7.00
45 | C[C@H](Nc1nc(N)ncc1C(F)(F)F)c1cc2cccc(C(F)(F)F)c2c(=O)n1-c1ccccc1 | < 5.00 | – | > 7.00 | > 7.00

Reference: the Kinase Knowledgebase extract (Sharma et al. 2016)
